Data taken from publication PMC11892739, “Site-specific molecular glues for the 14-3-3/Tau pS214 protein–protein interaction via reversible covalent imine tethering” (RSC Medicinal Chemistry, 2025).
“Also recorded” adds a separate entry of the source.

Tests used:
[1] = target: T1, 14-3-3γ/Tau pS214 interaction (Homo sapiens, UniProt P61981); experiment: Fluorescence anisotropy 14-3-3γ titration with compound and monovalent Tau pS214 peptide; type: binding; conditions: for apparent cooperativity factor (app. α), 14-3-3γ/Tau pS214: 2D titrations, 14-3-3γ titrated at varied compound concentrations, saturation of the ratio
T1 construct: made in house; host or cells: NiCo21 (DE3) E. coli
T1 sequence (P61981 1-247): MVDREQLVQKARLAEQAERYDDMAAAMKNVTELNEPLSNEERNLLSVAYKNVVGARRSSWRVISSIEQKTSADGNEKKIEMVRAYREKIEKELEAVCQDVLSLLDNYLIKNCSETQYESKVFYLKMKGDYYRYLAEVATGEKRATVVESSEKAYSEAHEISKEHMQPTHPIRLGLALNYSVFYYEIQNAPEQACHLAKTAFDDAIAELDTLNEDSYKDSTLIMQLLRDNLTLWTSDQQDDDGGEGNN
Description: FA assays in which 14-3-3γ was titrated to a constant concentration of compound (250 μM) in the presence of the distinct monovalent Tau peptide (10 nM) were performed.
The determined stabilization factors are concentration-dependent (here 250 μM of compound) and might differ based on assay design. […] The app. α-factors of these compounds for both 14-3-3/Tau complexes were determined by 14-3-3γ titrations in the presence of varied concentrations of the particular compound (Fig. 5d and e). Both compounds reached saturation for both 14-3-3γ/Tau complexes enabling accurate determination of the α-factor. The app. α-factors of aldehydes 1 and 18 were plotted for both 14-3-3γ/Tau complexes to investigate phospho-binding site selective cooperativity (Fig. 5f and h). To do so, the stabilization factors at a given compound concentration were plotted against the compound concentration, leading to the determination of the app. α-factors. […]
chromatography (HisTrap high performance cartridges, Cytiva). Typically two 5 mL columns were used for a 2 L culture in which the lysate was loaded on the column, washed with 10 CV wash buffer (50 mM Hepes, pH 8.0, 300 mM NaCl, 25 mM imidazole, 2 mM βME), and eluted with several fractions (2-4 CV) of elution buffer (50 mM Hepes, pH 8.0, 300 mM NaCl, 250 mM imidazole, 2 mM βME). Fractions containing the 14-3-3 protein were combined and dialyzed into 25 mM HEPES pH 8.0, 200 mM NaCl, 10 mM MgCl2, 2 mM βME, followed by dialysis into 25 mM HEPES, 100 mM NaCl, 10 mM MgCl2, 500 μM TCEP (adjusted to pH 8.0). Dialyzed protein was concentrated to ∼40 mg/mL, analyzed by Q -Tof LC/MS, and aliquots were flash -frozen for storage at −80 °C. […]
0.1% (v/v) Tween20, 0.1% (w/v) BSA). Dilution series were made in polystyrene low -volume 384 -well plates (Corning #4514, Black Round Bottom). Measurements were performed directly after plate preparation, using a Tecan SPARK plate reader at room temperature ( λex: 485±20 nm; λem: 535±25 nm; mirror: automatic; flashes: 30; settle time: 1 ms; gain: optimal; Z -position: calculated from well). Wells containing only fluorescein labelled peptide were used to set as G -factor calibrated from these wells. All data were analyzed using GraphPad Prism (10.0.1) and fitted with a four -parameter logistic model (4PL) to determine binding affinities (dissociation constant, KD). All data shown is background corrected for the signal without 14 -3-3ζ and the mean and standard deviation of technical duplicate is plotted, assay performed in a scientific duplicate for hit compounds.
Fluorescence Anisotropy – 14-3-3 titrations in the presence of compound To characterize the affinity of the Tau peptides for 14-3-3 in the presence of compound, 14-3-3ζ or γ was titrated in a 2-fold dilution series starting at 400 (for the 14-3-3ζ titrations to Tau pS2) or 800 (for the 14-3-3γ titrations to Tau pS214 or pS324) µM. 14-3-3 was added to 10 nM of fluorescein-labeled peptide (Tau pS2, Tau pS214 or Tau pS324) in the presence of 250 µM compound (1% DMSO). The assays were performed in a similar way as described above. Data shown is the average and standard deviation of a technical duplicate, top plateau corrected where needed, assay performed in a scientific duplicate. […]
The peptide screen was performed in a similar way as the 14-3-3ζ titration in the precence of compound.
14-3-3ζ was titrated in a 2-fold dilution series (starting at 400 µM 14-3-3ζ) to 100 nM of fluorescein-labeled peptides and 250 µM compound 18 (1% DMSO) in FA buffer (10 mM HEPES pH 7.4, 150 mM […]
Data shown is the average of a scientific triplicate. […]
DSF was performed using 40 µl samples containing 2.5 µM 14 -3-3ζ, 25 µM Tau peptide (Tau pS2, Tau pS214 or Tau pS324), […] (1% DMSO) and 5x ProteoOrange (Lumiprobe, 5000x stock in DMSO) in 10 mM HEPES, 150 mM NaCl, 50 µM TCEP (pH 7.4). The samples were heated from 35 °C to 79°C at a rate of 0.3 °C per 15 s in a C FX96 Touch Real-Time PCR Detection System (Bio -Rad). Fluorescence […]

14-3-3γ = 14-3-3γ (Homo sapiens, UniProt P61981); experiment: 19F-NMR spectroscopy of fluorinated analogs at varying 14-3-3 concentrations; type: binding; conditions: 125 μM stabilizer, 14-3-3 0-250 μM, no Tau peptide
Description: Fig. 3 a Dose–response fluorescence anisotropy data of compound titrations to 10 nM FITC-labeled Tau pS2 peptide and 100 nM 14-3-3ζ. […] Mean of three individually performed experiments (see ESI ^† Fig. S8 for the protein titrations). e Differential scanning fluorimetry assay results. Identified melting temperatures (Tm) of 14-3-3γ alone (2.5 μM) and in the presence of Tau pS2 peptide (25 μM) and additionally with selected compounds (75 μM).
This stepwise mechanism has been described in detail for related benzaldehyde stabilizers and the 14-3-3/Pin1 interaction.[34] However, the imidazolyl-benzaldehydes might also show an intrinsic binding affinity for 14-3-3. To elucidate the underlying processes, we performed ^19F-NMR spectroscopy studies (Fig. 3f) with the fluorinated analogs 20 and 21. At a constant stabilizer concentration (125 μM), the 14-3-3 concentration was varied from 0 μM to 250 μM.

## O=Cc1ccc(-n2ccnc2-c2ccccc2)cc1Br [Compound 1]
[1]
  apparent cooperativity factor (app. α), 14-3-3γ/Tau pS214: 3.8

## CCc1ccc(-c2nccn2-c2ccc(C=O)c(Br)c2)cc1 [Compound 18]
[1]; 250 μM compound, 10 nM Tau pS214 peptide, internal DMSO reference
  SF250μM for the 14-3-3γ/Tau pS214 complex: 8.6
[1]
  apparent cooperativity factor (app. α), 14-3-3γ/Tau pS214: 10.2

## O=Cc1ccc(-n2ccnc2-c2ccc(C(F)(F)F)cc2)cc1Br [Compound 20]
14-3-3γ
  binding to 14-3-3 by 19F-NMR (in words): formation of the binary 14-3-3/stabilizer complex

## O=Cc1ccc(-n2ccnc2-c2ccc(OC(F)(F)F)cc2)cc1Br [Compound 21]
14-3-3γ
  binding to 14-3-3 by 19F-NMR (in words): ligand binding to 14-3-3γ; also recorded: formation of the binary 14-3-3/stabilizer complex
